Laboratory results: patent US11207301B2, “Sphingosine 1 phosphate receptor agonists for neuroprotection” (RECEPTOS LLC, priority 2017, dated 2021)
pIC50: −log10 of the molar value.

What was measured:
[1] = tested on: cuprizone-induced mouse model of demyelination; assay: Cuprizone-induced mouse model of demyelination / neuroprotection; type: in vivo, C57BL/6 mice; settings: 1 mg/kg; vehicle 258±49.1, p<0.001
Description: The effect of a S1P receptor agonist on spinal cord axial demyelination or reduction in axonal breaks can be assessed by measuring concentration of neurofilament light chain (NfL) in the plasma. NfL is released to the plasma following axonal injury and degeneration. Histological examination of axons with antineurofilament H non-phosphorylated mouse antibody SMI-32 can also be used to assess axonal demyelination or breaks. NfH is phosphorylated in healthy axons and unphosphorylated in damaged axons. In addition, the effects of ozanimod on the CNS were examined in vivo using the cuprizone-induced mouse model of demyelination and in vitro in primary rodent astrocytes. Efficacy of ozanimod or compound (2-R) was examined in the cuprizone-induced mouse model of neuroprotection. C57BL/6 mice were treated with cuprizone (0.3% weight/weight orally) and rapamycin (10 mg/kg intraperitoneally daily) to demyelinate axons in the brain and concurrently treated with ozanimod (0.1, 0.3, or 1 mg/kg) or compound (2-S) (1 mg/kg) by daily oral gavage to investigate its neuroprotective activity. Neuroprotection was assessed through examination of axonal pathology in the corpus callosum using SMI-32 (antineurofilament H non-phosphorylated mouse monoclonal antibody) staining, functional assessment through kinematic gait analysis and the plasma biomarker neurofilament light chain (NfL). Further, direct activity of ozanimod was examined in resting and activated primary rodent astrocytes in vitro.

Recombinant human MAO-A = target: T1, Recombinant human MAO-A (Homo sapiens, UniProt P21397); assay: MAO-A inhibition, conversion of kynuramine to 4-hydroxyquinoline; type: biochemical
T1 construct: purchased Sigma-Aldrich M7316; host or cells: baculovirus infected insect cells
T1 sequence (P21397 1-527): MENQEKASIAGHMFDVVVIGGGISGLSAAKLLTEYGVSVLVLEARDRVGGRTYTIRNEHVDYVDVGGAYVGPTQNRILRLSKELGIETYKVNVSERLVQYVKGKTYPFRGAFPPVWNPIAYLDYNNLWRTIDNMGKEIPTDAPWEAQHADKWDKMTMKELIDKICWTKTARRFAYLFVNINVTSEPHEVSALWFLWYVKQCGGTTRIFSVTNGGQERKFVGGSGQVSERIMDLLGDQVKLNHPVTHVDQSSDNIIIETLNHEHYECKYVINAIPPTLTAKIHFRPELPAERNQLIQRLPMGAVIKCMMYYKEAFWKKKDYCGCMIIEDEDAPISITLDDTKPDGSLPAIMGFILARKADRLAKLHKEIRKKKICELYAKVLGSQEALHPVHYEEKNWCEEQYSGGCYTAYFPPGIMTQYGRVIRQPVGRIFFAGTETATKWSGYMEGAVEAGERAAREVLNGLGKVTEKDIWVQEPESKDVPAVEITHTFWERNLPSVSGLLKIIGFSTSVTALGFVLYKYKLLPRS
Description: (§1) The effect of a S1P receptoragonist on MAO-B activity can be assessed by measuring the inhibition of conversion of substrate kynuramine to 4-hydroxyquinoline as described in Example 4.
(§2) Compound 1 and Compound 2-S were evaluated for their ability to inhibit MAO-A and MAO-B. Inhibition of the conversion of kynuramine, a substrate for MAO-A and MAO-B, to 4-hydroxyquinoline was used to assess the inhibitory potential of Compound 1 and Compound 2-S. Recombinant human MAO-A (product number M7316) and MAO-B (product number M7441) expressed in baculovirus infected insect cells were obtained from Sigma-Aldrich, Saint Louis, Mo. USA were used as a source of purified MAOs.
Recombinant MAO-A (0.01 mg/mL, final concentrations) and MAO-B (0.02 mg/mL, final concentration) were diluted to desired concentrations in 100 mM potassium phosphate buffer (pH 7.4) containing 5 mM MgCl2. The diluted protein fractions were preincubated with various concentrations of each test compound at 37° C. for 2 min. The concentrations used were 100, 33, 10, 3.3, 1.0, 0.33 μM and acetonitrile/DMSO as vehicle control for MAO-A and 1.0, 0.3, 0.1, 0.03, 0.01, 0.003 μM and acetonitrile/DMSO as vehicle control for MAO-B. The reaction was started by addition of kynuramine to the incubation mixture. The final concentration of kynuramine was 40 μM for MAO-A and 25 μM for MAO-B. The total incubation volume was 0.250 mL. […] The reaction product, 4-hydroxyquinoline was analyzed by LC-MS/MS as described below. […]
(§3) The gradient system was used to separate the analytes with a flow rate of 0.5 ml/min using mobile phase A, water containing 0.1% formic acid and mobile phase B, acetonitrile containing 0.1% formic acid. […] The analytes were monitored using multiple reaction monitoring and the ion transitions (Q1/Q3) were as follows: 4-hydroxyquinoline 146/104 (collision energy, CE was 27; declustering potential, DP, 50, and IS (acetaminophen), 152/110 (collision energy, CE was 27; declustering potential, DP, 50). All data were analyzed using AB Sciex Analyst v1.6.2 software.

Recombinant human MAO-B = target: T2, Recombinant human MAO-B (Homo sapiens, UniProt P27338); assay: MAO-B inhibition, conversion of kynuramine to 4-hydroxyquinoline; type: biochemical
T2 construct: purchased Sigma-Aldrich M7441; host or cells: baculovirus infected insect cells
T2 sequence (P27338 1-520): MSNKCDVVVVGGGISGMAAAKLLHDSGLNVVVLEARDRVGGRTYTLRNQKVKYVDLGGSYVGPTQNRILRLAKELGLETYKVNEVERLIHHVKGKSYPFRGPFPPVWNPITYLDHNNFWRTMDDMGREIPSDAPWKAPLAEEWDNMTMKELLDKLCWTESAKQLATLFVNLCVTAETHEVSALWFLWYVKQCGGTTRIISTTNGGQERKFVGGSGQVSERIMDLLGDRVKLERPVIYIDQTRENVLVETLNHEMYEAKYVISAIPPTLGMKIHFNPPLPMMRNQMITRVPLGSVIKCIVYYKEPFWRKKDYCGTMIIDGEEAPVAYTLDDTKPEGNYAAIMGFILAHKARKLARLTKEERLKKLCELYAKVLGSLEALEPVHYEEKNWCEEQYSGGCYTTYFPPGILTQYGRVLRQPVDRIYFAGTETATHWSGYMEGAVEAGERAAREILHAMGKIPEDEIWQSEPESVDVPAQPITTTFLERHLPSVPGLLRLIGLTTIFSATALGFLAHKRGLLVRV
Description: as §1, §2
Recombinant MAO-A (0.01 mg/mL, final concentrations) and MAO-B (0.02 mg/mL, final concentration) were diluted to desired concentrations in 100 mM potassium phosphate buffer (pH 7.4) containing 5 mM MgCl2. The diluted protein fractions were preincubated with various concentrations of each test compound at 37° C. for 2 min. The concentrations used were 100, 33, 10, 3.3, 1.0, 0.33 μM and acetonitrile/DMSO as vehicle control for MAO-A and 1.0, 0.3, 0.1, 0.03, 0.01, 0.003 μM and acetonitrile/DMSO as vehicle control for MAO-B. The reaction was started by addition of kynuramine to the incubation mixture. The final concentration of kynuramine was 40 μM for MAO-A and 25 μM for MAO-B. The total incubation volume was 0.250 mL. This concentration was selected to be close to the Km values of MAO-A (Km 42 μM) and MAO-B (Km 26 μM). After 10 min of incubation, aliquots (100 μL) of the reaction mixture were taken and added to 200 μL acetonitrile containing 0.5 μM IS (acetaminophen). The reaction product, 4-hydroxyquinoline was analyzed by LC-MS/MS as described below.
MS characterization and detection of kynuramine and 4-hydroxyquinoline was performed using ABI 4000 Sciex QTrap mass spectrometer utilizing a Turbo Spray. The mass spectrometer was controlled by Analyst v1.6.2. The ESI was operated in a positive ion mode and the experimental parameters were set as follows: ion spray voltage, 2000; source temperature, 550° C.; curtain gas, 20; collision gas, medium ion source gas 1, 55; ion source gas 2, 50. […]
as §3

In the case of CC(C)Oc1ccc(-c2nc(-c3cccc4c3CC[C@@H]4N)no2)cc1C#N [Compound 2-S], the “plasma biomarker NfL” value [1] was 127 ± 12.2 pg/mL, the pIC50 (Recombinant human MAO-A; kynuramine 40 μM, 10 min incubation) was 5.92 and the “MAO-A inhibition (in words)” value (Recombinant human MAO-A; tested up to 100 μM) was “inhibitory activity”. The “MAO-B inhibition (in words)” value (Recombinant human MAO-B) was “inhibitory activity” and the pIC50 (Recombinant human MAO-B; kynuramine 25 μM, 10 min incubation) was 7.49.
